Measured values taken from paper PMC9782245, “Synthesis and Structural Optimization of 2,7,9-Trisubstituted purin-8-ones as FLT3-ITD Inhibitors” (International Journal of Molecular Sciences, 2022).

Test system: MOLM13 cells
Test: Flow cytometric cell cycle analysis, MOLM13
Assay type: cell-based
Conditions: increasing doses, 24 h
Protocol: Finally, we performed flow cytometric analysis with different concentrations of 15a in MV4-11 and MOLM13 (another FLT-ITD positive cell line) and K562 cell lines treated for 24 h (Figure 5).
Asynchronously growing cells were seeded into a 96-well plate and, after a preincubation period, treated with tested compounds for 24 h. The treated cells were stained directly (or after trypsinization for the adherent cells) with the 5× staining solution (17 mM trisodium citrate dihydrate, 0.5% IGEPAL CA-630, 7.5 mM spermine tetrahydrochloride, and 2.5 mM Tris; pH 7.6 containing […] propidium iodide). After the staining, DNA content was analyzed using flow cytometry using a 488 nm laser (BD FACS Verse with software BD FACSuite^TM, version 1.0.6). Cell cycle distribution was analyzed using ModFit LT (Verity Software House, version 5.0).

CC(C)n1c(=O)n(C2CCCC2)c2nc(Nc3ccc(N4CCNCC4)cc3)ncc21 [15a, 9-cyclopentyl-7-isopropyl-2-((4-(piperazin-1-yl)phenyl)amino)-7,9-dihydro-8H-purin-8-one] was tested, and the “cells in the G1 phase, MOLM13” value was “up to 90%”.
